Measurements published in the supplement of paper PMC10307832.

Columns and labels:
Test in all cases: relative viability (nuclei count vs DMSO), 5 days (fraction); higher = more cells survive
[1] = compound: Cc1ccc(-n2nc(C(C)(C)C)cc2NC(=O)Nc2ccc(OCCN3CCOCC3)c3ccccc23)cc1 [Doramapimod] + CC(C)C[C@H](NC(=O)[C@H](Cc1ccccc1)NC(=O)c1cnccn1)B(O)O [Bortezomib] (partner 0.002 µM)
Procedure, shortened: (§1)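 One day after seeding in 1536-well plates, lung cancer cell lines were dosed by pin tool. Dosing was either single-drug or a fixed anchor-drug dose plus five library-drug doses (not always all listed) in √10 steps. After 5 days, nuclei were stained in one fix-and-stain step and counted on 4× images, and relative viability is the nuclei count of treated wells over that of vehicle wells, given as the median of duplicate plates.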

[2] = compound: Cc1ccc(-n2nc(C(C)(C)C)cc2NC(=O)Nc2ccc(OCCN3CCOCC3)c3ccccc23)cc1 [Doramapimod] + Cc1cc(Nc2cc(N3CCN(C)CC3)nc(Sc3ccc(NC(=O)C4CC4)cc3)n2)n[nH]1 [Tozasertib] (partner 0.1 µM)
Procedure, shortened: as §1

[3] = compound: Cn1c(Nc2ccc(C(F)(F)F)cc2)nc2cc(Oc3ccnc(-c4ncc(C(F)(F)F)[nH]4)c3)ccc21 [RAF265] + CC1(C)CCC(c2ccc(Cl)cc2)=C(CN2CCN(c3ccc(C(=O)NS(=O)(=O)c4ccc(N[C@H](CCN5CCOCC5)CSc5ccccc5)c(S(=O)(=O)C(F)(F)F)c4)cc3)CC2)C1 [Navitoclax] (partner 0.5 µM)
Procedure, shortened: as §1

[4] = compound: Cn1c(Nc2ccc(C(F)(F)F)cc2)nc2cc(Oc3ccnc(-c4ncc(C(F)(F)F)[nH]4)c3)ccc21 [RAF265] + Nc1nc2[nH]cc(CCc3ccc(C(=O)N[C@@H](CCC(=O)O)C(=O)O)cc3)c2c(=O)[nH]1 [Pemetrexed] (partner 0.2 µM)
Procedure, shortened: as §1

Row | Cell Line | relative viability ([1]; first compound 0.02 µM) | relative viability ([1]; first compound 0.06325 µM) | relative viability ([1]; first compound 0.2 µM) | relative viability ([1]; first compound 0.6325 µM) | relative viability ([1]; first compound 2 µM) | relative viability ([2]; first compound 0.02 µM) | relative viability ([2]; first compound 0.06325 µM) | relative viability ([2]; first compound 0.2 µM) | relative viability ([2]; first compound 0.6325 µM) | relative viability ([2]; first compound 2 µM) | relative viability ([3]; first compound 0.01 µM) | relative viability ([3]; first compound 0.1 µM) | relative viability ([3]; first compound 0.3162 µM) | relative viability ([3]; first compound 1 µM) | relative viability ([4]; first compound 0.01 µM) | relative viability ([4]; first compound 0.03162 µM) | relative viability ([4]; first compound 0.1 µM) | relative viability ([4]; first compound 0.3162 µM) | relative viability ([4]; first compound 1 µM) | relative viability ([3]; first compound 0.03162 µM)
1 | ABC-1 | 0.297 | 0.302 | 0.262 | 0.345 | 0.296 | 0.235 | 0.228 | 0.183 | 0.189 | 0.123 | – | – | – | – | – | – | – | – | – | –
2 | IA-LM | 0.842 | 0.757 | 0.795 | 0.92 | 0.656 | – | – | – | – | – | 0.73 | 0.663 | 0.597 | 0.609 | – | – | – | – | – | –
3 | NCI-H322M | 1.26 | 1.43 | 1.18 | 1.26 | 1.35 | 0.519 | 0.487 | 0.532 | 0.497 | 0.531 | 1.18 | 1.15 | 0.381 | 0.274 | 0.587 | 0.605 | 0.472 | 0.357 | 0.335 | 1.14
4 | NCI-H1792 | 0.946 | 0.952 | 0.948 | 1.05 | 0.831 | – | – | – | – | – | 0.637 | 0.641 | 0.541 | 0.459 | 0.808 | 0.517 | 0.539 | 0.0889 | 0.118 | 0.597
5 | LXF-289 | 1.01 | 1.02 | 1.03 | 1.02 | 0.907 | 0.207 | 0.177 | 0.177 | 0.19 | 0.203 | 0.919 | 0.935 | 0.818 | 0.807 | 0.95 | 0.841 | 0.917 | 0.776 | 0.764 | 0.905
6 | HCC-827 | 0.963 | 1.03 | 1.01 | 0.931 | 0.969 | 0.422 | 0.414 | 0.422 | 0.375 | 0.356 | 1.06 | 1.08 | – | 0.78 | 0.281 | 0.24 | 0.214 | – | 0.278 | 0.987
7 | NCI-H522 | – | – | – | – | – | 0.501 | 0.489 | 0.579 | 0.59 | 0.471 | – | – | – | – | 0.922 | 1.15 | 1.09 | 1.13 | 1 | –
8 | SK-MES-1 | – | – | – | – | – | 0.94 | 0.869 | 0.81 | 0.856 | 0.781 | 1.11 | 1.01 | 0.361 | 0.209 | 0.941 | 0.698 | 0.48 | 0.366 | 0.326 | 1.01
9 | NCI-H1299 | 1.03 | 1.09 | 1.04 | 1.06 | 1.05 | – | – | – | – | – | 1.03 | 1.06 | 0.989 | 0.738 | – | – | – | – | – | 0.988
10 | NCI-H1563 | 0.871 | 0.88 | 0.993 | 1.17 | 0.873 | – | – | – | – | – | – | – | – | – | 0.943 | 0.886 | 0.77 | 0.779 | 0.699 | –
11 | NCI-H661 | 0.793 | 0.794 | 0.719 | 0.942 | 0.667 | 0.36 | 0.353 | 0.342 | 0.366 | 0.346 | – | – | – | – | 0.941 | 0.873 | 0.835 | 0.701 | 0.615 | –
12 | NCI-H1944 | – | – | – | – | – | 0.234 | 0.229 | 0.235 | 0.256 | 0.235 | 1.11 | 1.15 | 0.798 | 0.86 | 0.849 | 0.859 | 0.632 | 0.405 | 0.472 | 1.06
13 | LK-2 | – | – | – | – | – | 0.186 | 0.182 | 0.18 | 0.179 | 0.192 | 0.777 | 0.832 | 0.633 | 0.57 | 0.237 | 0.352 | 0.188 | 0.244 | 0.215 | 0.791
14 | NCI-H727 | 0.853 | 0.818 | 0.775 | 0.705 | 0.87 | 0.633 | 0.644 | 0.559 | 0.702 | 0.536 | 0.531 | 0.512 | 0.363 | 0.229 | – | – | – | – | – | 0.539
15 | Calu-6 | 1.05 | 1.03 | 1.02 | 1.11 | 1.03 | – | – | – | – | – | 0.753 | 0.569 | 0.304 | 0.221 | – | – | – | – | – | 0.588
16 | NCI-H1395 | – | – | – | – | – | 0.765 | 0.778 | 0.783 | 0.761 | 0.717 | 1.46 | 1.15 | 1.28 | 0.867 | 0.893 | 0.878 | 0.824 | 0.65 | 0.683 | 1.16
17 | NCI-H650 | 0.882 | 1.11 | 1.03 | 0.737 | 0.874 | 0.757 | 0.823 | 0.804 | 0.798 | 0.654 | – | – | – | – | 0.96 | 0.76 | 0.734 | 0.573 | 0.505 | –
18 | NCI-H1703 | 0.305 | 0.208 | 0.226 | 0.365 | 0.218 | – | – | – | – | – | 1.16 | 0.848 | 0.576 | 0.283 | – | – | – | – | – | 0.95
19 | EBC-1 | 0.549 | 0.563 | 0.473 | 0.684 | 0.549 | – | – | – | – | – | 0.398 | 0.332 | 0.283 | 0.312 | – | – | – | – | – | 0.366
20 | NCI-H1648 | – | – | – | – | – | 0.442 | 0.498 | 0.58 | 0.353 | 0.481 | – | – | – | – | 0.758 | 0.66 | 0.771 | 1.02 | 0.65 | –
21 | SW 900 | – | – | – | – | – | 0.538 | 0.584 | 0.618 | 0.479 | 0.481 | – | – | – | – | 0.486 | 0.512 | 0.512 | 0.488 | 0.254 | –
22 | NCI-H2342 | – | – | – | – | – | 0.494 | 0.508 | 0.554 | 0.584 | 0.621 | – | – | – | – | 0.809 | 0.818 | 0.782 | 0.803 | 0.788 | –
23 | A549 | – | – | – | – | – | – | – | – | – | – | 1.31 | 1.06 | 0.669 | 0.624 | – | – | – | – | – | 1.19
24 | LCLC-103H | 1.19 | 0.986 | 1.04 | 1.2 | 1.03 | 0.431 | 0.529 | 0.388 | 0.544 | 0.432 | – | – | – | – | 0.496 | 0.423 | 0.476 | 0.459 | 0.429 | –
